Measurements as given in ChEMBL document CHEMBL5303304, “EUbOPEN Chemogenomics Library - IncuCyte” (2023).

What was measured:
Type in all cases: toxicity, cell-based
[1] = system: Fibroblast; assay: Incucyte cell viability with human fibroblast; details: 10 µM, compound concentration 10 uM
[2] = system: HEK-293T; assay: Incucyte cell viability with HEK293T; details: human, 10 µM, compound concentration 10 uM
[3] = system: U2OS; assay: Incucyte cell viability with U2OS; details: human, 10 µM, compound concentration 10 uM
Further: unitless GR value; below 1 slowed growth and below 0 cell loss.

Row | Structure (SMILES) | Growth Rate ([1]; 6 h, replicate number 1) | Growth Rate ([2]; 6 h, replicate number 1) | Growth Rate ([2]; 6 h, replicate number 2) | Growth Rate ([2]; 12 h, replicate number 1) | Growth Rate ([2]; 12 h, replicate number 2) | Growth Rate ([2]; 18 h, replicate number 1) | Growth Rate ([2]; 18 h, replicate number 2) | Growth Rate ([2]; 24 h, replicate number 1) | Growth Rate ([2]; 24 h, replicate number 2) | Growth Rate ([3]; 12 h, replicate number 2) | Growth Rate ([3]; 18 h, replicate number 1) | Growth Rate ([1]; 6 h, replicate number 2) | Growth Rate ([1]; 12 h, replicate number 2) | Growth Rate ([1]; 24 h, replicate number 2) | Growth Rate ([3]; 0 h, replicate number 1) | Growth Rate ([1]; 18 h, replicate number 1) | Growth Rate ([1]; 18 h, replicate number 2) | Growth Rate ([1]; 24 h, replicate number 1) | Growth Rate ([3]; 18 h, replicate number 2) | Growth Rate ([3]; 24 h, replicate number 2) | also measured
1 | CCC(C)(C)NC(=NC#N)Nc1cccnc1 | -1 | 0.19 | 0.56 | 0.42 | 0.56 | 0.64 | 0.78 | 0.85 | 0.95 | 0.85 | 1 |  |  |  |  |  |  |  |  |  | Growth Rate ([3]; 0 h, replicate number 2): -0.68
2 | Cl.O=S(=O)(c1cccc2c(I)cccc12)N1CCCNCC1 | -1 | -0.39 |  | 0.3 |  | 0.81 |  | 0.89 | 0.88 |  |  | -0.05 | 0.87 | 0.96 | -1 |  |  |  |  |  | Growth Rate ([3]; 6 h, replicate number 2): 0.86
3 | CC(Oc1cc(-c2cnn(C3CCNCC3)c2)cnc1N)c1c(Cl)ccc(F)c1Cl (configuration not stated) |  | -0.85 | -0.51 | -0.78 | -0.35 | -0.49 | -0.18 | -0.28 | -0.11 | 0.65 | 0.4 | -0.95 | -0.64 | -0.44 | -1 | -0.67 | -0.52 | -0.22 | 0.45 | 0.5 | Growth Rate ([1]; 12 h, replicate number 1): -0.94; Growth Rate ([3]; 12 h, replicate number 1): 0.53; Growth Rate ([3]; 24 h, replicate number 1): 0.39
4 | O=C(Nc1ccc(Cl)nc1)c1ccc(Cl)cc1 | -0.32 | 0.33 | 0.16 | 0.71 | 0.63 | 0.59 | 0.53 | 0.63 | 0.65 |  |  |  |  |  | -0.12 |  |  | 0.54 |  |  | Growth Rate ([1]; 0 h, replicate number 1): -0.21; Growth Rate ([1]; 0 h, replicate number 2): -0.9; Growth Rate ([3]; 0 h, replicate number 2): -0.39; Growth Rate ([3]; 12 h, replicate number 1): 0.95
5 | CC[C@H](C(=O)Nc1ccccc1N1CCCC1)c1ccccc1 |  | 0.92 | 0.91 |  |  |  |  |  |  |  |  | -0.59 | 0.33 | 0.9 |  | -0.04 | 0.67 | -0.08 | 0.84 | 0.84 | 
6 | Oc1cccc(Nc2ccnc3[nH]c4ccccc4c23)c1 | -0.78 | -0.94 | -0.96 | -0.75 | -0.62 | -0.41 | -0.28 | -0.06 | 0 | 0.91 | 0.69 | -0.81 | -0.25 | 0.3 |  |  | 0.18 | 0.48 | 0.7 | 0.63 | Growth Rate ([1]; 0 h, replicate number 1): 0.68; Growth Rate ([1]; 12 h, replicate number 1): -0.34; Growth Rate ([3]; 24 h, replicate number 1): 0.73
7 | Cc1c(C(=O)NCCCN(C)C)sc2ncnc(Nc3ccc(F)cc3OC(C)CF)c12 (configuration not stated) | -1 | -0.52 | 0.2 | -0.29 | 0.14 | -0.13 | 0.14 | 0.07 | 0.16 |  |  |  |  | 0.55 |  |  | 0.93 |  |  |  | Growth Rate ([3]; 0 h, replicate number 2): 0.69
8 | CC(C)(O)c1ccc2c(c1)ncn2-c1cccc(-c2ccccc2C#N)c1 |  | 0.78 | -0.24 | 0.77 | 0.2 | 0.65 | 0.48 | 0.73 | 0.54 |  |  | -0.67 | 0.33 |  | 0.93 | 0.64 | 0.52 | 0.28 |  |  | Growth Rate ([1]; 0 h, replicate number 1): 0.6; Growth Rate ([1]; 0 h, replicate number 2): -0.48; Growth Rate ([1]; 12 h, replicate number 1): 0.43; Growth Rate ([3]; 0 h, replicate number 2): 0.83
9 | Cc1c(NC(=O)c2cccn(-c3ccc(F)cc3)c2=O)ccc(Oc2ccnc(NC(=O)C3CC3)c2)c1C | 0.52 | 0.59 | 0.27 |  | 0.78 |  | 0.94 |  |  |  | 0.85 | 0.99 |  |  | -0.05 |  |  |  |  | 0.96 | Growth Rate ([1]; 0 h, replicate number 2): 0.16; Growth Rate ([3]; 0 h, replicate number 2): -0.46; Growth Rate ([3]; 12 h, replicate number 1): 0.92
10 | CN1CCN([C@H]2CC[C@@H](n3cc(-c4ccc(Oc5ccccc5)cc4)c4c(N)ncnc43)CC2)CC1 | -1 | -0.98 |  | -0.89 | -0.8 | -0.69 | -0.6 | -0.55 | -0.44 | 0.01 | -0.15 | -0.98 | -0.72 | -0.46 | -1 |  | -0.51 | 0.42 | 0.03 | -0.03 | Growth Rate ([3]; 6 h, replicate number 1): -0.82; Growth Rate ([3]; 6 h, replicate number 2): -0.23; Growth Rate ([3]; 12 h, replicate number 1): -0.26; Growth Rate ([3]; 24 h, replicate number 1): -0.17
11 | Cc1ccc(NC(=O)c2ccc3cnccc3c2)cc1C(=O)Nc1cnc(Nc2cccc(NC3CCN(C(=O)/C=C/CN(C)C)CC3)c2)nc1 |  | -0.97 | -0.98 | -0.87 | -0.77 | -0.65 | -0.56 | -0.54 | -0.39 | 0.68 | 0.33 | -1 | -0.71 | -0.3 |  | -0.78 | -0.42 | -0.28 | 0.49 | 0.46 | Growth Rate ([1]; 0 h, replicate number 1): 0.35; Growth Rate ([1]; 0 h, replicate number 2): -0.14; Growth Rate ([1]; 12 h, replicate number 1): -0.99; Growth Rate ([3]; 0 h, replicate number 2): -0.97; Growth Rate ([3]; 6 h, replicate number 1): -0.26; Growth Rate ([3]; 6 h, replicate number 2): 0.51; Growth Rate ([3]; 12 h, replicate number 1): 0.17; Growth Rate ([3]; 24 h, replicate number 1): 0.27
12 | Cc1c(C(=O)Nc2cccc(C(F)(F)F)c2)cc(-c2ccccc2)n1CCCN1CCOCC1.Cl | -0.95 | -0.17 | -0.54 | 0.11 | 0.01 | 0.32 | 0.27 | 0.46 | 0.37 | 0.89 |  | 0.1 | 0.65 | 0.84 | 0.27 |  | 0.73 |  | 0.88 | 0.95 | 
13 | COc1ccc(CCCN2CCC(COC(c3ccccc3)c3ccccc3)CC2)cc1.Cl |  | -0.53 | -0.09 | -0.23 | 0.28 | -0.02 | 0.26 | 0.24 | 0.31 |  |  | -1 | -0.74 | -0.23 | 0.33 | -0.16 | -0.39 | 0.17 |  |  | Growth Rate ([1]; 12 h, replicate number 1): -0.98
14 | Cl.Cl.O=[N+]([O-])c1ccc(CN2CCOCCOCCN(Cc3ccc([N+](=O)[O-])cc3)CCOCC2)cc1 |  | -0.5 | -0.29 | 0.04 | 0.2 | 0.13 | 0.39 | 0.2 | 0.52 | 0.21 | 0.69 | -0.71 | 0.3 | 0.84 |  | -0.4 | 0.63 | -0.06 | 0.56 | 0.76 | Growth Rate ([1]; 0 h, replicate number 1): 0.74; Growth Rate ([1]; 12 h, replicate number 1): -0.95; Growth Rate ([3]; 6 h, replicate number 1): -0.05; Growth Rate ([3]; 6 h, replicate number 2): 0.19; Growth Rate ([3]; 12 h, replicate number 1): 0.28; Growth Rate ([3]; 24 h, replicate number 1): 0.67
15 | O=C(Nc1cccc(C(F)(F)F)c1)c1cc(Cl)ccc1O | -0.98 | -0.8 | -0.84 | -0.85 | -0.56 | -0.77 | -0.41 | -0.67 | -0.3 | 0.59 | 0.4 | -0.88 | -0.65 | -0.46 | -0.07 | 0.8 | -0.55 | 0.08 | 0.41 | 0.27 | Growth Rate ([3]; 6 h, replicate number 1): 0.96; Growth Rate ([3]; 6 h, replicate number 2): 0.71; Growth Rate ([3]; 12 h, replicate number 1): 0.63; Growth Rate ([3]; 24 h, replicate number 1): 0.28
